This is an account of results in patent US9546157B2, “Asymmetric piperidinyl-substituted ureas as medicines” (Helsinn Healthcare SA, priority 2014, dated 2017).

Test [1] concerns the target T1, GHSR1a (Homo sapiens, UniProt Q92847).
T1 construct: expressed in transfected cells; host or cells: HEK293
The test can be described thus: Calcium FLIPR assay, GHSR-1a agonism. Type of test: cell-based. The following applies: HEK293/GHSR1a cells. Further details: Emax: unit not given here. The protocol: (§1) The intracellular calcium assay was carried out in a 384-well format FLIPR™ (Molecular Device) HEK293/GHSR1a cell line. Cells were seeded 24 hr prior to the experiments at an optimal density per well. Preincubation with selected calcium dye lasted for 30-60 min at room temperature or 37° C. Test compounds, dissolved in DMSO, were added at the appropriate time and incubated for 15 min followed by the addition of ghrelin with FlexStation or FLIPR. Relative fluorescence was monitored by the FLIPR™ Molecular Device. EC50 and IC50 values were estimated from dose-response data using GraphPad Prism software. To check for GHSR-1a agonism the compound was added at t=20 sec. and the calcium response was followed for 2 minutes. To check for GHSR-1a antagonism the compound and Ghrelin (10 nM) were added to the cells at t=20 sec. and the calcium response was measured for 2 minutes. The potency of the antagonist was calculated by its ability to reduce the ghrelin response. Dose-response curves were made for relevant antagonists.

The target in test [2] is T1, GHSR1a. The test can be described thus: Calcium FLIPR assay, GHSR-1a antagonism (reduction of ghrelin response). It is filed as cell-based. The following applies: HEK293/GHSR1a cells, ghrelin 10 nM. The protocol:
as §1

Each structure is given as a SMILES string.

T1 sequence (Q92847 whole entry): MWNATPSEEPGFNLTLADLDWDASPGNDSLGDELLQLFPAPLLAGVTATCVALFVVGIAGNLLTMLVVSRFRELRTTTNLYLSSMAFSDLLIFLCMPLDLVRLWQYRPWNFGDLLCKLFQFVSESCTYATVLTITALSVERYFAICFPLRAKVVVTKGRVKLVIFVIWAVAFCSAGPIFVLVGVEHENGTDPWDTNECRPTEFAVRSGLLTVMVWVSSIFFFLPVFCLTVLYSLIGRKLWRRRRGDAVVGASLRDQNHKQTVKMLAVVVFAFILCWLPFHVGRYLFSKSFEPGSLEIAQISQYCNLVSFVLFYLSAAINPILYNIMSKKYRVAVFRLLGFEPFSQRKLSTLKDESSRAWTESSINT

The EC50 is the concentration giving half of the maximal effect. Broadly, the IC50 is the concentration that gives 50% inhibition. For `CC(NC(=O)N(C)C1CCN(C)CC1)c1ccc(-c2ccc(C=O)s2)c(Cl)c1Cl` (centres unmarked) [Compound H0652, 3-(1-(2,3-dichloro-4-(5-formylthiophen-2-yl)phenyl)ethyl)-1-methyl-1-(1-methylpiperidin-4-yl)urea], at GHSR1a [1], the EC50 is 5 nM and the Emax is recorded as 1500. The concentration for half-maximal inhibition (IC50) at GHSR1a [2] amounted to 7 nM.
Take `COc1ccc(C(C#N)NC(=O)N(C)C2CCN(C)CC2)c(Cl)c1Br` (centres unmarked) [Compound H0658, 3-((3-bromo-2-chloro-4-methoxyphenyl)(cyano)methyl)-1-methyl-1-(1-methylpiperidin-4-yl)urea]: on GHSR1a [1], the EC50 stood at 9 nM and the Emax is reported as 2400. Moreover, at GHSR1a [2], the IC50 stood at 6 nM.
For `COc1ccc(C(NC(=O)N(C)C2CCN(C)CC2)C(N)=O)c(Cl)c1Br` (centres unmarked) [Compound H0659, 2-(3-bromo-2-chloro-4-methoxyphenyl)-2-(3-methyl-3-(1-methylpiperidin-4-yl)ureido)acetamide], in that order: 353 nM, 200 and 390 nM.
For the molecule `COC(=O)C(NC(=O)N(C)C1CCN(C)CC1)c1ccc(-c2cccs2)c(Cl)c1Cl` (centres unmarked) [Compound H0660, methyl 2-(2,3-dichloro-4-(thiophen-2-yl)phenyl)-2-(3-methyl-3-(1-methylpiperidin-4-yl)ureido)acetate], on GHSR1a [1], the EC50 was 180 nM and the Emax came out at 2100. Also, the IC50 at GHSR1a [2] amounted to 69 nM.
On to `COC(=O)C(NC(=O)N(C)C1CCN(C)CC1)c1ccc(-c2cncnc2)c(Cl)c1Cl` (centres unmarked) [Compound H0662, methyl 2-(2,3-dichloro-4-(pyrimidin-5-yl)phenyl)-2-(3-methyl-3-(1-methylpiperidin-4-yl)ureido)acetate], for which, on GHSR1a [1], the EC50 was over 30000 nM. In addition, on GHSR1a [2], the IC50 is at least 1000 nM.
On to `COc1ncc(-c2ccc(C(C)NC(=O)N(C)C3CCN(C)CC3)c(Cl)c2Cl)c(OC)n1` (centres unmarked) [Compound H0663, 3-(1-(2,3-dichloro-4-(2,4-dimethoxypyrimidin-5-yl)phenyl)ethyl)-1-methyl-1-(1-methylpiperidin-4-yl)urea], for which the EC50 at GHSR1a [1] is over 30000 nM. Also, the IC50 at GHSR1a [2] was determined as 274 nM.
For `CC(NC(=O)N(C)C1CCN(C)CC1)c1ccc(-c2sccc2CO)c(Cl)c1Cl` (centres unmarked) [Compound H0664, 3-(1-(2,3-dichloro-4-(3-(hydroxymethyl)thiophen-2-yl)phenyl)ethyl)-1-methyl-1-(1-methylpiperidin-4-yl)urea], in that order: over 30000 nM and 261 nM.
As to `CN1CCC(N(C)C(=O)NC(C#N)c2ccc(-c3cncc(C#N)c3)c(Cl)c2Cl)CC1` (centres unmarked) [Compound H0666, 3-(cyano(2,3-dichloro-4-(5-cyanopyridin-3-yl)phenyl)methyl)-1-methyl-1-(1-methylpiperidin-4-yl)urea], on GHSR1a [1], the EC50 is 21 nM and the Emax is 4927. The IC50 at GHSR1a [2] came out at 8 nM.
As to `CC(NC(=O)N(C)C1CCN(C)CC1)c1ccc(-c2ccc(CF)s2)c(Cl)c1Cl` (centres unmarked) [Compound H0668, 3-(1-(2,3-dichloro-4-(5-(fluoromethyl)thiophen-2-yl)phenyl)ethyl)-1-methyl-1-(1-methylpiperidin-4-yl)urea], on GHSR1a [1], the EC50 was found to be 10 nM and the Emax worked out at 2168. The IC50 on GHSR1a [2] turned out to be 8 nM.
Take `CN1CCC(N(C)C(=O)NC(CO)c2ccc(-c3cncnc3)c(Cl)c2Cl)CC1` (centres unmarked) [Compound H0670, 3-(1-(2,3-dichloro-4-(pyrimidin-5-yl)phenyl)-2-hydroxyethyl)-1-methyl-1-(1-methylpiperidin-4-yl)urea]: the EC50 on GHSR1a [1] is over 30000 nM. Also, the IC50 on GHSR1a [2] turned out to be 523000 nM.
As to `COc1ccc(C(C)(C#N)NC(=O)N(C)C2CCN(C)CC2)c(Cl)c1Cl` (centres unmarked) [Compound H0671, 3-(1-cyano-1-(2,3-dichloro-4-methoxyphenyl)ethyl)-1-methyl-1-(1-methylpiperidin-4-yl)urea], at GHSR1a [1], the EC50 was determined as 60 nM and the Emax is 3748. Further, the IC50 at GHSR1a [2] was 34 nM.
In the case of `CN1CCC(N(C)C(=O)NC2(c3ccc(-c4cccs4)c(Cl)c3Cl)CC2)CC1` [Compound H0672, 3-(1-(2,3-dichloro-4-(thiophen-2-yl)phenyl)cyclopropyl)-1-methyl-1-(1-methylpiperidin-4-yl)urea], on GHSR1a [1], the EC50 is over 30000 nM. Moreover, the IC50 on GHSR1a [2] is over 1 nM.
In the case of `CN1CCC(N(C)C(=O)NC2(c3ccc(-c4cncnc4)c(Cl)c3Cl)CC2)CC1` [Compound H0673, 3-(1-(2,3-dichloro-4-(pyrimidin-5-yl)phenyl)cyclopropyl)-1-methyl-1-(1-methylpiperidin-4-yl)urea], the EC50 on GHSR1a [1] was over 30000 nM. Besides, at GHSR1a [2], the IC50 is over 1000 nM.
As for `CC(=O)c1ccsc1-c1ccc(C(C)NC(=O)N(C)C2CCN(C)CC2)c(Cl)c1Cl` (centres unmarked) [Compound H0688, 3-(1-(4-(3-acetylthiophen-2-yl)-2,3-dichlorophenyl)ethyl)-1-methyl-1-(1-methylpiperidin-4-yl)urea], on GHSR1a [1], the EC50 came to 12 nM and the Emax worked out at 3100. The IC50 on GHSR1a [2] came out at 3 nM.
`CC(NC(=O)N(C)C1CCN(C)CC1)c1ccc(-c2ccc(C(=O)O)s2)c(Cl)c1Cl` (centres unmarked) [Compound H0689, 5-(2,3-dichloro-4-(1-(3-methyl-3-(1-methylpiperidin-4-yl)ureido)ethyl)phenyl)thiophene-2-carboxylic acid]: on GHSR1a [1], the EC50 is over 30000 nM. The IC50 at GHSR1a [2] is over 1000 nM.
As to `CC(=O)c1cncc(-c2ccc(C(C)NC(=O)N(C)C3CCN(C)CC3)c(Cl)c2Cl)c1` (centres unmarked) [Compound H0690, 3-(1-(4-(5-acetylpyridin-3-yl)-2,3-dichlorophenyl)ethyl)-1-methyl-1-(1-methylpiperidin-4-yl)urea], the EC50 at GHSR1a [1] is over 30000 nM. Moreover, the IC50 at GHSR1a [2] was 980 nM.
With `CON(C)C(=O)c1ccc(-c2ccc(C(C)NC(=O)N(C)C3CCN(C)CC3)c(Cl)c2Cl)s1` (centres unmarked) [Compound H0692, 5-(2,3-dichloro-4-(1-(3-methyl-3-(1-methylpiperidin-4-yl)ureido)ethyl)phenyl)-N-methoxy-N-methylthiophene-2-carboxamide], the EC50 on GHSR1a [1] is over 1000 nM. Besides, at GHSR1a [2], the IC50 is 550 nM.
For the molecule `CC(NC(=O)N(C)C1CCN(C)CC1)c1ccc(-c2cnn(CCO)c2)c(Cl)c1Cl` (centres unmarked) [Compound H0693, 3-(1-(2,3-dichloro-4-(1-(2-hydroxyethyl)-1H-pyrazol-4-yl)phenyl)ethyl)-1-methyl-1-(1-methylpiperidin-4-yl)urea], the EC50 at GHSR1a [1] was determined as 100 nM. At GHSR1a [2], the IC50 came out at 197 nM.
For `COCCn1cc(-c2ccc(C(C)NC(=O)N(C)C3CCN(C)CC3)c(Cl)c2Cl)cn1` (centres unmarked) [Compound H0694, 3-(1-(2,3-dichloro-4-(1-(2-methoxyethyl)-1H-pyrazol-4-yl)phenyl)ethyl)-1-methyl-1-(1-methylpiperidin-4-yl)urea] the same measures were over 30000 nM and 309 nM.
Turning to `CC(NC(=O)N(C)C1CCN(C)CC1)c1ccc(-c2cncc(Br)c2)c(Cl)c1Cl` (centres unmarked) [Compound H0695, 3-(1-(4-(5-bromopyridin-3-yl)-2,3-dichlorophenyl)ethyl)-1-methyl-1-(1-methylpiperidin-4-yl)urea], the EC50 on GHSR1a [1] is 5 nM. Besides, at GHSR1a [2], the IC50 turned out to be 78 nM.
For `CC(NC(=O)N(C)C1CCN(C)CC1)c1ccc(-c2cc(F)cc(CO)c2)c(Cl)c1Cl` (centres unmarked) [Compound H0696, 3-(1-(2,3-dichloro-3′-fluoro-5′-(hydroxymethyl)-[1,1′-biphenyl]-4-yl)ethyl)-1-methyl-1-(1-methylpiperidin-4-yl)urea] the same measures were over 30000 nM and 120 nM.
With `CC(NC(=O)N(C)C1CCN(C)CC1)c1ccc(-c2cncc(CC#N)c2)c(Cl)c1Cl` (centres unmarked) [Compound H0699, 3-(1-(2,3-dichloro-4-(5-(cyanomethyl)pyridin-3-yl)phenyl)ethyl)-1-methyl-1-(1-methylpiperidin-4-yl)urea], the EC50 on GHSR1a [1] is over 30000 nM. Also, at GHSR1a [2], the IC50 was found to be 171 nM.
In the case of `CC(=O)/C=C(\Cl)c1ccc(C(C)NC(=O)N(C)C2CCN(C)CC2)c(Cl)c1Cl` (centres unmarked) [Compound H0702, (Z)-3-(1-(2,3-dichloro-4-(1-chloro-3-oxobut-1-en-1-yl)phenyl)ethyl)-1-methyl-1-(1-methylpiperidin-4-yl)urea], at GHSR1a [1], the EC50 worked out at 1100 nM and the Emax is given as 1940. Moreover, the IC50 at GHSR1a [2] is 96 nM.
In the case of `CN1CCC(N(C)C(=O)NC(C)(C#N)c2ccc(-c3cncnc3)c(Cl)c2Cl)CC1` (centres unmarked) [Compound H0703, 3-(1-cyano-1-(2,3-dichloro-4-(pyrimidin-5-yl)phenyl)ethyl)-1-methyl-1-(1-methylpiperidin-4-yl)urea], the EC50 on GHSR1a [1] is over 30000 nM. Further, the IC50 at GHSR1a [2] stood at 695 nM.
For the molecule `C=Cc1cncc(-c2ccc(C(C)NC(=O)N(C)C3CCN(C)CC3)c(Cl)c2Cl)c1` (centres unmarked) [Compound H0706, 3-(1-(2,3-dichloro-4-(5-vinylpyridin-3-yl)phenyl)ethyl)-1-methyl-1-(1-methylpiperidin-4-yl)urea], at GHSR1a [1], the EC50 came to 91 nM and the Emax was 2111. Moreover, at GHSR1a [2], the IC50 came out at 116 nM.
Consider `CC(NC(=O)N(C)C1CCN(C)CC1)c1ccc(-c2cncc(-c3cn[nH]c3)c2)c(Cl)c1Cl` (centres unmarked) [Compound H0707, 3-(1-(4-(5-(1H-pyrazol-4-yl)pyridin-3-yl)-2,3-dichlorophenyl)ethyl)-1-methyl-1-(1-methylpiperidin-4-yl)urea], for which the EC50 on GHSR1a [1] is over 30000 nM. Besides, the IC50 on GHSR1a [2] came out at 185 nM.
